This assay addresses Pin1 (Homo sapiens, UniProt Q13526). In words: protease-coupled PPIase assay (pNA release at […] nm, […]°C). Type of assay: biochemical.
Chain of Pin1 (Q13526 whole entry): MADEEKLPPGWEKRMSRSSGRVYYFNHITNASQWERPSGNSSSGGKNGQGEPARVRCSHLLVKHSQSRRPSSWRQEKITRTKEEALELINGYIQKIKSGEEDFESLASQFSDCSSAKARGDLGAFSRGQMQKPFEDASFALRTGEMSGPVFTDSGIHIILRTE
The term IC50 denotes the concentration that gives 50% inhibition. Higher therefore signals weaker potency in that assay. `CC(=O)N[C@H](/C=C1/CCCC[C@@H]1C(=O)NCCc1ccc2ccccc2c1)COP(=O)(O)O` [(2R,5S)-1, Ac–L-pSer–Ψ[(Z)CH = C]-D-Pip–NEA]: the IC50 is 52 ± 4 µM.
With `CC(=O)N[C@@H](/C=C1/CCCC[C@H]1C(=O)NCCc1ccc2ccccc2c1)COP(=O)(O)O` [(2S,5R)-1, Ac–D-pSer–Ψ[(Z)CH = C]–L-Pip–2-(2-naphthyl)ethylamine (NEA)], half-maximal inhibition (IC50) required 85 ± 10 µM.
The molecule `CC(=O)N[C@@H](/C=C1/CCCC[C@@H]1C(=O)NCCc1ccc2ccccc2c1)COP(=O)(O)O` [(2S,5S)-1, (2S,5S)-Ac–pSer–Ψ[(Z)CH = C]–pipecolyl(Pip)–2-(2-naphthyl)ethylamine 1] showed a half-maximal inhibitory concentration (IC50) of 140 ± 20 µM.
